Reference: patent publication US9546157B2, “Asymmetric piperidinyl-substituted ureas as medicines” (Helsinn Healthcare SA, priority 2014, dated 2017)
Entries after “also recorded” stand apart in the source; their conditions may differ.

Legend:
GHSR1a [1] = target: T1, GHSR1a (Homo sapiens, UniProt Q92847); assay: Calcium FLIPR assay, GHSR-1a agonism; format: cell-based; conditions: HEK293/GHSR1a cells
T1 construct: expressed in transfected cells; host or cells: HEK293
How it was run: (§1)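 HEK293/GHSR1a; dye load 30-60 min, RT or 37° C; agonist: cpd at t=20 sec, Ca2+ read 2 min; antagonist: cpd + ghrelin 10 nM at t=20 sec, 2 min read; EC50/IC50 from dose-response fits.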

[2] = test system: female Sprague-Dawley rats; assay: Binge eating model in non-estrous female rats (food restriction + stress, HPF intake); format: in vivo, rat; conditions: for 2-h chow food intake during binge eating test / 24-h chow food intake after binge eating test: acute administration (compounds 3 and 30 mg/kg, Topiramate 60 mg/kg)
Experimental: In this Example, the therapeutic potential of compounds were tested for their ability to inhibit binge eating. The animal model used was developed to explore the combination of food restriction and stress. […] Considering the reliability and the robustness of this model, it was adopted to test the inventive compounds.
A total of N=117, 52-day-old female Sprague-Dawley rats (175-200 g) were used. Rats were acclimated in individual cages with metallic walls; the floor and the front wall made of metallic grid. The dimensions of the cage floor being 30 cm×30 cm; the cage is 30 cm high. A front door (30 cm×20 cm) made of metallic grid was positioned in the anterior wall of the cage to gain access to the inside of the cage; the remaining part of the front wall was equipped with a drinking burette.
Rats were kept in a room at constant temperature (20-22° C.) and humidity (45-55%) under a 12-h light/dark cycle (lights on at 08:00 am) with ad lib chow and water. All procedures were conducted in adherence to the European Community Directive for Care and Use of Laboratory Animals.
Rats were offered food pellets, 4RF18, Mucedola, Settimo Milanese, Italy (2.6 kcal/g). The Highly Palatable Food (HPF) was prepared by mixing:
Rats were exposed to 3 consecutive 8-day cycles followed by the final test on day 25:
a) the control group (NR+NS) had chow ad libitum for 4 days, on days 5-6 it received chow+HPF for 2 h; on days 7-8 it had chow ad libitum; on day 25 it was not exposed to stress;
b) the second group (R+S) had chow restricted to 66% of the normal intake for 4 days, was offered chow and HPF (2 h) on days 5-6 and only chow on days 7-8; on day 25 it […].
Body weights and food intake were recorded daily. Food intake is expressed as mean kilocalories per kilogram ingested±SEM.
Therefore, immediately after the test on day 25, vaginal smears were collected and analyzed under microscope to assess the ovarian phase, and data from rats in the estrous phase were not included in the statistical analysis. Vaginal smears were analyzed by an experienced experimenter blind to treatment conditions.
For 15 min, the container (China coffee cup) containing HPF is placed outside the cage; the container handle is hooked to the top wire wall of the cage in the hollow part where food pellets are usually offered. In these conditions, the animal is able to see the cup in which it received HPF on days 5, 6, 13, and 14 of the first two cycles, is able to see in part the HPF itself, and is able to smell its odour. In this 15-min period, the rat engages in repeated movements of the forepaws, head, and trunk aimed at obtaining the HPF, but it is not able to reach it. Rats undergo the stressful procedure between 10.00 and 12.00 am. After 15 min, the cup is placed inside the cage of the rats in the stress group (R+S), so that the HPF became accessible to the rat.
100 mg of each compound (H0816, H0860, H0847 and H0900) was accurately weighed and suspended in 13.33 ml of 0.5% carboxymethyl cellulose sodium salt (CMC, Sigma-Aldrich Cat. C4888, lot 120M0216V) solution. The lower dose solution was prepared by dilution of 30 mg/ml suspension with 0.5% CMC solution. Suspensions were prepared freshly on test day. Vehicle was composed by a solution of 0.5% carboxymethyl cellulose sodium salt and was prepared by dissolving 1 g of CMC in 200 ml of distilled water. 180 mg of Topiramate was accurately weighed and suspended in 12 ml of 0.5% CMC solution. Compounds (vehicle and active principles) were administered by gavage in a volume of 4 ml/kg of body weight one hour before access to HPF.
All data are expressed as the mean±s.e.m. and each value reflects the mean number of animals per group as described in the legends. For data evaluation, the analysis of variance (ANOVA) was used followed by post-hoc (Bonferroni's) test when appropriate. Statistical significance was set at P<0.05. The Software used for the Graphs was Origin 7.0. […]

C57BL/6J mice = assay: Food intake test in mouse (GHSR1a antagonists); format: in vivo; conditions: for inhibition in vivo at 30 mg/kg / inhibition in vivo at 10 mg/kg: Mus musculus, po
How it was run: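 Male C57BL/6J mice (18-22 g) were fasted overnight (16 h before dosing), then randomized by body weight to vehicle or test agent (n=6 each). Cumulative food intake was measured at 1, 2, 4, 8 and 24 hrs post-dose as premeasured food minus uneaten food.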

GHSR1a [3] = target: T1, GHSR1a; assay: Calcium FLIPR assay, GHSR-1a antagonism (reduction of ghrelin response); format: cell-based; conditions: HEK293/GHSR1a cells, ghrelin 10 nM
How it was run: as §1

[4] = Metabolic Stability (H = Human); format: in vitro ADME
[5] = Metabolic Stability (M = Mouse); format: in vitro ADME
[6] = first test, 30 mg/kg by gavage 1 h before access to HPF, vs R+S vehicle
[7] = first test, 3 and 30 mg/kg by gavage
[8] = first test, doses of 3 and 30 mg/kg by gavage, acute administration
[9] = second test, H0816 3, 10 and 30 mg/kg, Topiramate 60 mg/kg

T1 sequence (Q92847 whole entry): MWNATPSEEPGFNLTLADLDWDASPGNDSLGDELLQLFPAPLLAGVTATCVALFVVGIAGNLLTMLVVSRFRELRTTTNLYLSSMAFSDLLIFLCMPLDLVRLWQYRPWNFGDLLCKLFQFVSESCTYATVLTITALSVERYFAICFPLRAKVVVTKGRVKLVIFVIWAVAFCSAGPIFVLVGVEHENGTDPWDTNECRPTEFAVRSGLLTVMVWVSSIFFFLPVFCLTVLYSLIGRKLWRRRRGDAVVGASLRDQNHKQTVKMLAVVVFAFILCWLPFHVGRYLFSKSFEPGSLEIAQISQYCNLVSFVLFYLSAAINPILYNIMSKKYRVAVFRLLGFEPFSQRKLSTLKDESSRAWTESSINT

Structure (SMILES) | EC50 (GHSR1a [1]) | HPF intake (binge eating) in R+S rats, post-hoc [2, 6] | animals' gross behaviour during the 2-h test [2, 7] | 2-h chow food intake during binge eating test ([2]; first test) | 24-h chow food intake after binge eating test ([2]; first test) | 2-h HPF intake (binge eating) in R+S rats, overall (ANOVA) [2, 8] | IC50 (GHSR1a [3]) | Metabolic Stability H [4] | Metabolic Stability M [5] | also measured
C[C@H](NC(=O)N(C)C1CCN(C)CC1)c1ccc(-c2cnccn2)c(Cl)c1Cl [Compound H0816, (S)-3-(1-(2,3-dichloro-4-(pyrazin-2-yl)phenyl)ethyl)-1-methyl-1-(1-methylpiperidin-4-yl)urea] | > 30000 nM | statistically significant (P<0.05) at 15 min time point | did not affect animals' gross behaviour | did not modify 2-h chow intake | did not modify 24-h chow intake | reduced binge eating episodes; also recorded: significant difference; also recorded: significantly reduced BE behaviour | 5.1 nM | – | – | HPF intake (binge eating) in R+S rats, post-hoc ([2]; second test, 10 mg/kg by gavage 1 h before access to HPF): statistically significant (P<0.05) at 15 min time point; HPF intake (binge eating) in R+S rats, post-hoc ([2]; second test, 30 mg/kg by gavage 1 h before access to HPF): completely blocked (P<0.01) the BE episode at 15 min; animals' gross behaviour during the 2-h test ([2]; second test, 3, 10 and 30 mg/kg by gavage): did not affect animals' gross behaviour; 2-h chow intake [2, 9]: did not modify; 24-h chow intake [2, 9]: did not modify; 2-h HPF intake (binge eating) in R+S rats, overall (ANOVA) ([2]; second test, doses of 3, 10 and 30 mg/kg by gavage): significant difference; also recorded: confirmed, dose dependently, its selective inhibitory effect on BE; inhibition in vivo at 30 mg/kg (C57BL/6J mice; 30 mg/kg PO fasted mice, time not given): 12%
C[C@H](NC(=O)N(C)C1CCN(C)CC1)c1ccc(-c2cncc(F)n2)c(Cl)c1Cl [Compound H0847, (S)-3-(1-(2,3-dichloro-4-(6-fluoropyrazin-2-yl)phenyl)ethyl)-1-methyl-1-(1-methylpiperidin-4-yl)urea] | > 30000 nM | significantly (P<0.01) reduced HPF intake at all time points | mild sedation | significantly increased 2-h chow food intake | significantly increased 24-h chow food intake | reduced binge eating episodes; also recorded: significant difference; also recorded: significantly reduced BE behaviour | 2 nM | High H High M | High H High M | HPF intake (binge eating) in R+S rats, post-hoc ([2]; first test, 3 mg/kg by gavage 1 h before access to HPF, vs R+S vehicle): statistically significant at 15, 30 and 60 min after HPF access; Mouse Food Intake, result in words (C57BL/6J mice; PO 10 mg/kg + ANA (ANAM) 30 mg/kg mice): PO 10 mg/kg + ANA 30 mg/kg mice: NSE
CC[C@H](NC(=O)N(C)C1CCN(C)CC1)c1ccc(-c2cnccn2)c(Cl)c1Cl [Compound H0860, (S)-3-(1-(2,3-dichloro-4-(pyrazin-2-yl)phenyl)propyl)-1-methyl-1-(1-methylpiperidin-4-yl)urea] | > 30000 nM | – | – | significantly increased 2-h chow food intake | significantly increased 24-h chow food intake | not statistically significant; also recorded: did not significantly reduce HPF intake; also recorded: did not affect HPF intake | 3 nM | High H High M | High H High M | inhibition in vivo at 10 mg/kg (C57BL/6J mice; 1 h, PO 10 mg/kg + ANA 30 mg/kg mice): 68%
CN1CCC(N(C)C(=O)N[C@H](c2ccc(-c3cnccn3)c(Cl)c2Cl)C(F)(F)F)CC1 [Compound H0900, (R)-3-(1-(2,3-dichloro-4-(pyrazin-2-yl)phenyl)-2,2,2-trifluoroethyl)-1-methyl-1-(1-methylpiperidin-4-yl)urea] | > 30000 nM | statistically significant (P<0.01) at all time points | did not affect animals' gross behaviour | did not modify 2-h chow intake | did not modify 24-h chow intake | reduced binge eating episodes; also recorded: significant difference; also recorded: significantly reduced BE behaviour | 3 nM | Medium | High | inhibition in vivo at 10 mg/kg (C57BL/6J mice; 1 h, PO 10 mg/kg + ANA 30 mg/kg fed mice): 60%; inhibition in vivo at 30 mg/kg (C57BL/6J mice; 1 h, PO 30 mg/kg + ANA 30 mg/kg fed mice): 91%; inhibition in vivo at 30 mg/kg (C57BL/6J mice; 1 h, PO 30 mg/kg fasted mice): 26%; inhibition in vivo at 30 mg/kg (C57BL/6J mice; 1 h, PO 30 mg/kg fed mice): 90%
